{"source": "patent US10780091B2", "about": "“TLR7 agonist maleate salt, crystalline forms C, D and E thereof, preparation methods and uses of maleate salt and crystalline forms” (CHIA TAI TIANQING PHARMACEUTICAL GROUP CO., LTD., priority 2016, dated 2020)", "experiment": "Stability tests of the crystal forms (high temperature, high humidity, light)", "assay_type": "physicochemical", "settings": "general statement; tests at 60° C., 40° C./75% humidity, 5000 Lx described but data not given", "procedure": "The crystal forms prepared in Examples 1-3 were tested in the accelerated test under high temperature conditions for stability in accordance with Guidelines for the Stability Test of Pharmaceutical Ingredients and Pharmaceutical Preparations (Chinese Pharmacopoeia 2010 Appendix XIXC).\nThe crystal forms C, D and E prepared in Examples 1-3 were placed in an open-clean container at 60° C., respectively. The samples were taken for test on day 10, day 20 and day 30, respectively. The results were compared with the initial test result on day 0.\nThe crystal forms prepared in Examples 1-3 were tested in the accelerated test under high humidity conditions for stability in accordance with Guidelines for the Stability Test of Pharmaceutical Ingredients and Pharmaceutical Preparations (Chinese Pharmacopoeia 2010 Appendix XIXC).\nThe crystal forms C, D and E prepared in Examples 1-3 were subjected to an accelerated test in a constant temperature and humidity vessel under the conditions of 40° C./75% humidity (open). The samples were taken for test on day 30, day 60 and day 90, respectively. The results were compared with the initial test result on day 0. […]", "data": [{"smiles": "CCCCOc1nc(N)c2[nH]cc(Cc3ccc(CN4CCCC4)cc3)c2n1.O=C(O)/C=C\\C(=O)O", "note": "[crystal form C, Maleate of 2-butoxy-7-(4-(pyrrolidin-1-ylmethyl)benzyl)-5H-pyrrolo[3,2-d]pyrimidin-4-amine]", "values": [{"measurement": "stability of the crystal form", "result": "good stability"}]}]}
